{"source": "PubChem BioAssay (NCI)", "assay_in_all_cases": "NCI-60 cell line screen, 48 h", "key": {"HL-60(TB) leukemia": {"system": "HL-60(TB) leukemia"}, "SK-OV-3 ovarian": {"system": "SK-OV-3 ovarian"}, "OVCAR-3 ovarian": {"system": "OVCAR-3 ovarian"}, "SN12C renal": {"system": "SN12C renal"}, "SNB-75 CNS": {"system": "SNB-75 CNS"}, "MOLT-4 leukemia": {"system": "MOLT-4 leukemia"}, "PC-3 prostate": {"system": "PC-3 prostate"}, "CCRF-CEM leukemia": {"system": "CCRF-CEM leukemia"}, "NCI-H226 lung": {"system": "NCI-H226 lung"}, "OVCAR-4 ovarian": {"system": "OVCAR-4 ovarian"}}, "note": "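A five-concentration, 48-hour dose response in 96-well plates underlies each endpoint, interpolated linearly between surrounding concentrations. At the GI50, growth is halved. TGI: concentration producing complete growth inhibition.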"}
{"smiles": "CN1CCN(Cc2ccc(NC(=O)c3cncc(C#Cc4cncc5ncccc45)c3)cc2C(F)(F)F)CC1", "values": [{"measurement": "GI50", "setting": "HL-60(TB) leukemia", "value": 0.303, "unit": "µM"}, {"measurement": "TGI", "setting": "HL-60(TB) leukemia", "value": 2.02, "unit": "µM"}, {"measurement": "GI50", "setting": "SK-OV-3 ovarian", "value": 2.89, "unit": "µM"}, {"measurement": "TGI", "setting": "SK-OV-3 ovarian", "value": 11.3, "unit": "µM"}, {"measurement": "GI50", "setting": "OVCAR-3 ovarian", "value": 6.32, "unit": "µM"}, {"measurement": "TGI", "setting": "OVCAR-3 ovarian", "value": 19.2, "unit": "µM"}, {"measurement": "GI50", "setting": "SN12C renal", "value": 2.59, "unit": "µM"}, {"measurement": "TGI", "setting": "SN12C renal", "value": 11.8, "unit": "µM"}, {"measurement": "GI50", "setting": "SNB-75 CNS", "value": 5.83, "unit": "µM"}, {"measurement": "TGI", "setting": "SNB-75 CNS", "value": 18.8, "unit": "µM"}, {"measurement": "GI50", "setting": "MOLT-4 leukemia", "value": 1.18, "unit": "µM"}, {"measurement": "TGI", "setting": "MOLT-4 leukemia", "value": 16, "unit": "µM"}, {"measurement": "GI50", "setting": "PC-3 prostate", "value": 5.5, "unit": "µM"}, {"measurement": "TGI", "setting": "PC-3 prostate", "value": 24, "unit": "µM"}, {"measurement": "GI50", "setting": "CCRF-CEM leukemia", "value": 3.27, "unit": "µM"}, {"measurement": "TGI", "setting": "CCRF-CEM leukemia", "value": 34.8, "unit": "µM"}, {"measurement": "GI50", "setting": "NCI-H226 lung", "value": 0.467, "unit": "µM"}, {"measurement": "TGI", "setting": "NCI-H226 lung", "value": 11.8, "unit": "µM"}]}
{"smiles": "O=C1OCCC1C(O)C1c2ccccc2-c2ccccc21", "note": "(stereo not drawn)", "values": [{"measurement": "TGI", "setting": "HL-60(TB) leukemia", "value": "> 100", "unit": "µM"}, {"measurement": "TGI", "setting": "OVCAR-4 ovarian", "value": "> 100", "unit": "µM"}, {"measurement": "TGI", "setting": "SK-OV-3 ovarian", "value": "> 100", "unit": "µM"}, {"measurement": "TGI", "setting": "OVCAR-3 ovarian", "value": "> 100", "unit": "µM"}, {"measurement": "TGI", "setting": "SN12C renal", "value": "> 100", "unit": "µM"}, {"measurement": "TGI", "setting": "SNB-75 CNS", "value": "> 100", "unit": "µM"}, {"measurement": "TGI", "setting": "MOLT-4 leukemia", "value": "> 100", "unit": "µM"}, {"measurement": "TGI", "setting": "CCRF-CEM leukemia", "value": "> 100", "unit": "µM"}, {"measurement": "TGI", "setting": "NCI-H226 lung", "value": "> 100", "unit": "µM"}]}
{"smiles": "CC1(C)CCc2cc3c(cc2O1)OCC1c2cc4c(cc2OC31)OCO4", "note": "(stereo not drawn)", "values": [{"measurement": "TGI", "setting": "HL-60(TB) leukemia", "value": "> 100", "unit": "µM"}, {"measurement": "TGI", "setting": "OVCAR-4 ovarian", "value": "> 100", "unit": "µM"}, {"measurement": "TGI", "setting": "SK-OV-3 ovarian", "value": "> 100", "unit": "µM"}, {"measurement": "TGI", "setting": "OVCAR-3 ovarian", "value": "> 100", "unit": "µM"}, {"measurement": "TGI", "setting": "SN12C renal", "value": "> 100", "unit": "µM"}, {"measurement": "TGI", "setting": "SNB-75 CNS", "value": "> 100", "unit": "µM"}, {"measurement": "TGI", "setting": "MOLT-4 leukemia", "value": "> 100", "unit": "µM"}, {"measurement": "TGI", "setting": "CCRF-CEM leukemia", "value": "> 100", "unit": "µM"}, {"measurement": "TGI", "setting": "NCI-H226 lung", "value": "> 100", "unit": "µM"}]}
{"smiles": "O=C(c1cc2ccccc2o1)N(Cc1ccccc1)c1ccccc1", "values": [{"measurement": "TGI", "setting": "HL-60(TB) leukemia", "value": 40.6, "unit": "µM"}, {"measurement": "TGI", "setting": "SK-OV-3 ovarian", "value": 91.2, "unit": "µM"}, {"measurement": "TGI", "setting": "OVCAR-3 ovarian", "value": 41.2, "unit": "µM"}, {"measurement": "TGI", "setting": "SN12C renal", "value": 34.7, "unit": "µM"}, {"measurement": "TGI", "setting": "SNB-75 CNS", "value": "> 100", "unit": "µM"}, {"measurement": "TGI", "setting": "MOLT-4 leukemia", "value": 39.9, "unit": "µM"}, {"measurement": "TGI", "setting": "CCRF-CEM leukemia", "value": 37.6, "unit": "µM"}, {"measurement": "TGI", "setting": "NCI-H226 lung", "value": 34.9, "unit": "µM"}]}
{"smiles": "CC(=O)c1cccc(NC(=O)C(=O)C(C2OC(=O)c3ccccc32)[N+](=O)[O-])c1", "note": "(stereo not drawn)", "values": [{"measurement": "TGI", "setting": "HL-60(TB) leukemia", "value": "> 100", "unit": "µM"}, {"measurement": "TGI", "setting": "OVCAR-4 ovarian", "value": "> 100", "unit": "µM"}, {"measurement": "TGI", "setting": "SK-OV-3 ovarian", "value": "> 100", "unit": "µM"}, {"measurement": "TGI", "setting": "OVCAR-3 ovarian", "value": "> 100", "unit": "µM"}, {"measurement": "TGI", "setting": "SN12C renal", "value": "> 100", "unit": "µM"}, {"measurement": "TGI", "setting": "SNB-75 CNS", "value": "> 100", "unit": "µM"}, {"measurement": "TGI", "setting": "MOLT-4 leukemia", "value": "> 100", "unit": "µM"}, {"measurement": "TGI", "setting": "CCRF-CEM leukemia", "value": "> 100", "unit": "µM"}, {"measurement": "TGI", "setting": "NCI-H226 lung", "value": "> 100", "unit": "µM"}]}
{"smiles": "Cc1c(C(=O)C/C(=N/NC(=O)C[n+]2ccccc2)C(=O)Nc2ccccc2)[n+](=O)c2ccccc2n1O", "values": [{"measurement": "TGI", "setting": "HL-60(TB) leukemia", "value": "> 100", "unit": "µM"}, {"measurement": "TGI", "setting": "OVCAR-4 ovarian", "value": "> 100", "unit": "µM"}, {"measurement": "TGI", "setting": "SK-OV-3 ovarian", "value": "> 100", "unit": "µM"}, {"measurement": "TGI", "setting": "OVCAR-3 ovarian", "value": "> 100", "unit": "µM"}, {"measurement": "TGI", "setting": "SN12C renal", "value": "> 100", "unit": "µM"}, {"measurement": "TGI", "setting": "SNB-75 CNS", "value": "> 100", "unit": "µM"}, {"measurement": "TGI", "setting": "MOLT-4 leukemia", "value": "> 100", "unit": "µM"}, {"measurement": "TGI", "setting": "CCRF-CEM leukemia", "value": "> 100", "unit": "µM"}, {"measurement": "TGI", "setting": "NCI-H226 lung", "value": "> 100", "unit": "µM"}]}
{"smiles": "Cc1noc(C)c1-c1cc(O)cc(C(O)c2ccccc2)c1", "note": "(stereo not drawn)", "values": [{"measurement": "GI50", "setting": "HL-60(TB) leukemia", "value": 2.17, "unit": "µM"}, {"measurement": "TGI", "setting": "HL-60(TB) leukemia", "value": 22.7, "unit": "µM"}, {"measurement": "GI50", "setting": "OVCAR-4 ovarian", "value": 6.35, "unit": "µM"}, {"measurement": "TGI", "setting": "OVCAR-4 ovarian", "value": "> 100", "unit": "µM"}, {"measurement": "GI50", "setting": "SK-OV-3 ovarian", "value": 7.01, "unit": "µM"}, {"measurement": "TGI", "setting": "SK-OV-3 ovarian", "value": "> 100", "unit": "µM"}, {"measurement": "GI50", "setting": "OVCAR-3 ovarian", "value": 6.65, "unit": "µM"}, {"measurement": "TGI", "setting": "OVCAR-3 ovarian", "value": "> 100", "unit": "µM"}, {"measurement": "GI50", "setting": "SN12C renal", "value": 17.2, "unit": "µM"}, {"measurement": "TGI", "setting": "SN12C renal", "value": "> 100", "unit": "µM"}, {"measurement": "GI50", "setting": "SNB-75 CNS", "value": 0.423, "unit": "µM"}, {"measurement": "TGI", "setting": "SNB-75 CNS", "value": "> 100", "unit": "µM"}, {"measurement": "GI50", "setting": "MOLT-4 leukemia", "value": 17.9, "unit": "µM"}, {"measurement": "TGI", "setting": "MOLT-4 leukemia", "value": 80.7, "unit": "µM"}, {"measurement": "GI50", "setting": "CCRF-CEM leukemia", "value": 14.8, "unit": "µM"}, {"measurement": "TGI", "setting": "CCRF-CEM leukemia", "value": "> 100", "unit": "µM"}, {"measurement": "GI50", "setting": "NCI-H226 lung", "value": 21.3, "unit": "µM"}, {"measurement": "TGI", "setting": "NCI-H226 lung", "value": "> 100", "unit": "µM"}]}
{"smiles": "COc1c(NC(C)=O)cc(C)cc1NC(C)=O", "values": [{"measurement": "TGI", "setting": "HL-60(TB) leukemia", "value": "> 100", "unit": "µM"}, {"measurement": "TGI", "setting": "OVCAR-4 ovarian", "value": "> 100", "unit": "µM"}, {"measurement": "TGI", "setting": "SK-OV-3 ovarian", "value": "> 100", "unit": "µM"}, {"measurement": "TGI", "setting": "OVCAR-3 ovarian", "value": "> 100", "unit": "µM"}, {"measurement": "TGI", "setting": "SN12C renal", "value": "> 100", "unit": "µM"}, {"measurement": "TGI", "setting": "SNB-75 CNS", "value": "> 100", "unit": "µM"}, {"measurement": "TGI", "setting": "MOLT-4 leukemia", "value": "> 100", "unit": "µM"}, {"measurement": "TGI", "setting": "CCRF-CEM leukemia", "value": "> 100", "unit": "µM"}]}
{"smiles": "Cc1cc(=O)[nH]o1", "values": [{"measurement": "TGI", "setting": "OVCAR-4 ovarian", "value": "> 100", "unit": "µM"}, {"measurement": "TGI", "setting": "SK-OV-3 ovarian", "value": "> 100", "unit": "µM"}, {"measurement": "TGI", "setting": "OVCAR-3 ovarian", "value": "> 100", "unit": "µM"}, {"measurement": "TGI", "setting": "SNB-75 CNS", "value": "> 100", "unit": "µM"}, {"measurement": "TGI", "setting": "PC-3 prostate", "value": "> 100", "unit": "µM"}, {"measurement": "TGI", "setting": "NCI-H226 lung", "value": "> 100", "unit": "µM"}]}
{"smiles": "CC(=O)O[C@]1(C)OC(=O)[C@@H](C)N1[N+](=O)[O-]", "values": [{"measurement": "TGI", "setting": "HL-60(TB) leukemia", "value": "> 100", "unit": "µM"}, {"measurement": "TGI", "setting": "OVCAR-4 ovarian", "value": "> 100", "unit": "µM"}, {"measurement": "TGI", "setting": "SK-OV-3 ovarian", "value": "> 100", "unit": "µM"}, {"measurement": "TGI", "setting": "OVCAR-3 ovarian", "value": "> 100", "unit": "µM"}, {"measurement": "TGI", "setting": "SN12C renal", "value": "> 100", "unit": "µM"}, {"measurement": "TGI", "setting": "SNB-75 CNS", "value": "> 100", "unit": "µM"}, {"measurement": "TGI", "setting": "MOLT-4 leukemia", "value": "> 100", "unit": "µM"}, {"measurement": "TGI", "setting": "CCRF-CEM leukemia", "value": "> 100", "unit": "µM"}, {"measurement": "TGI", "setting": "NCI-H226 lung", "value": "> 100", "unit": "µM"}]}
